Measured values taken from PubChem BioAssay (NCI).
“And” between values parts separate entries of the source, which are not always exact repeats. Identical values can stand only once.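 Method: 48-hour compound exposure of cells in 96-well plates, five concentrations, linear interpolation of endpoints. At the GI50, growth is halved. The concentration for full growth arrest is given as TGI.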

How the values were obtained:
Assay in all cases: NCI tumour cell line growth inhibition, 48 h; in the data active = GI50 below about 0.43 µM; inactive = the rest
COLO 205 colon = test system: COLO 205 colon
HL-60(TB) leukemia = test system: HL-60(TB) leukemia
SF-539 CNS = test system: SF-539 CNS
OVCAR-5 ovarian = test system: OVCAR-5 ovarian
HCT-116 colon = test system: HCT-116 colon
SK-MEL-28 melanoma = test system: SK-MEL-28 melanoma
HOP-92 NSCLC = test system: HOP-92 NSCLC
SR leukemia = test system: SR leukemia
U251 CNS = test system: U251 CNS
BT-549 breast = test system: BT-549 breast

COC(=O)C1(C)CC2C(C)(CCC3(C)C4=CC=C5C(=CC(=O)C(O)=C5C)C4(C)CCC23C)CC1O (configuration not stated)
0.575 µM: TGI (SR leukemia)
3.32 µM: TGI (OVCAR-5 ovarian)
2.82 µM: TGI (HOP-92 NSCLC)
2.1 µM: TGI (SK-MEL-28 melanoma)
0.771 µM: TGI (HL-60(TB) leukemia)
1.72 µM: TGI (COLO 205 colon)
3.3 µM: TGI (SF-539 CNS)
1.89 µM: TGI (HCT-116 colon)

COc1ccc(Cl)cc1Nc1nc(C(F)(F)F)ccc1C(=O)N/N=C/c1cccnc1
28.3 µM: TGI (HOP-92 NSCLC)
> 100 µM: TGI (COLO 205 colon) | TGI (HL-60(TB) leukemia) | TGI (SF-539 CNS) | TGI (HCT-116 colon) | TGI (U251 CNS) | TGI (SK-MEL-28 melanoma) | TGI (BT-549 breast)
inactive: GI50 (COLO 205 colon) 2.58 µM | GI50 (HL-60(TB) leukemia) 1.95 µM | GI50 (SF-539 CNS) 5.12 µM | GI50 (HCT-116 colon) 3.43 µM | GI50 (U251 CNS) 2.4 µM | GI50 (SK-MEL-28 melanoma) 3.95 µM | GI50 (BT-549 breast) 1.99 µM | GI50 (HOP-92 NSCLC) 2.42 µM

O=C1c2ccccc2C(=O)c2c1ccc1c(=O)n(-c3ccccc3C(F)(F)F)nnc21
6.8 µM: TGI (BT-549 breast)
8.49 µM: TGI (SF-539 CNS)
4.28 µM: TGI (COLO 205 colon)
17.9 µM: TGI (U251 CNS)
inactive: GI50 (COLO 205 colon) 1.83 µM | GI50 (HL-60(TB) leukemia) 1.76 µM | GI50 (SF-539 CNS) 2.57 µM | GI50 (OVCAR-5 ovarian) 2.19 µM | GI50 (HCT-116 colon) 1.85 µM | GI50 (U251 CNS) 2.66 µM | GI50 (SK-MEL-28 melanoma) 5.79 µM | GI50 (BT-549 breast) 1.81 µM | GI50 (HOP-92 NSCLC) 2.08 µM
5.94 µM: TGI (HOP-92 NSCLC)
10.5 µM: TGI (HCT-116 colon)
> 100 µM: TGI (SK-MEL-28 melanoma)
6.01 µM: TGI (OVCAR-5 ovarian)
5.48 µM: TGI (HL-60(TB) leukemia)

Cc1ccc(-c2nc3cc(Cl)c(Cl)cc3nc2C#N)cc1
inactive: GI50 (COLO 205 colon) > 100 µM | GI50 (HL-60(TB) leukemia) > 100 µM | GI50 (SF-539 CNS) > 100 µM | GI50 (OVCAR-5 ovarian) 46.2 µM | GI50 (HCT-116 colon) 90.3 µM | GI50 (U251 CNS) > 100 µM | GI50 (SK-MEL-28 melanoma) > 100 µM | GI50 (BT-549 breast) > 100 µM | GI50 (HOP-92 NSCLC) 40.5 µM
> 100 µM: TGI (COLO 205 colon) | TGI (HL-60(TB) leukemia) | TGI (SF-539 CNS) | TGI (OVCAR-5 ovarian) | TGI (HCT-116 colon) | TGI (U251 CNS) | TGI (SK-MEL-28 melanoma) | TGI (BT-549 breast) | TGI (HOP-92 NSCLC)

O=c1ccc(=O)n(-c2ccccc2)[nH]1
> 100 µM: TGI (COLO 205 colon) | TGI (HL-60(TB) leukemia) | TGI (SF-539 CNS) | TGI (OVCAR-5 ovarian) | TGI (HCT-116 colon) | TGI (U251 CNS) | TGI (SK-MEL-28 melanoma) | TGI (BT-549 breast) | TGI (HOP-92 NSCLC)

COc1cc2c(cc1O)CN1CCC23C=C[C@@H](O)CC13 (some centres not stated)
78.1 µM: TGI (COLO 205 colon)
38 µM: TGI (HL-60(TB) leukemia)
> 100 µM: TGI (OVCAR-5 ovarian) | TGI (HCT-116 colon) | TGI (U251 CNS) | TGI (SK-MEL-28 melanoma) | TGI (HOP-92 NSCLC) | TGI (SR leukemia)

O=C(N/N=C(/c1nc2ccc([N+](=O)[O-])cc2[nH]c1=O)C(O)c1ccc([N+](=O)[O-])cc1)c1ccncc1 (configuration not stated)
> 100 µM: TGI (COLO 205 colon) | TGI (HL-60(TB) leukemia) | TGI (SF-539 CNS) | TGI (OVCAR-5 ovarian) | TGI (HCT-116 colon) | TGI (U251 CNS) | TGI (SK-MEL-28 melanoma) | TGI (HOP-92 NSCLC) | TGI (SR leukemia)

COc1ccc(S(=O)(=O)N[C@H](C(=O)O)c2ccccc2)cc1
> 100 µM: TGI (COLO 205 colon) | TGI (SF-539 CNS) | TGI (OVCAR-5 ovarian) | TGI (HCT-116 colon) | TGI (U251 CNS) | TGI (SK-MEL-28 melanoma)

CN(C)CCn1cnc2ncccc2c1=O
> 100 µM: TGI (COLO 205 colon) | TGI (SF-539 CNS) | TGI (OVCAR-5 ovarian) | TGI (HCT-116 colon) | TGI (U251 CNS) | TGI (SK-MEL-28 melanoma) | TGI (HOP-92 NSCLC) | TGI (SR leukemia)

CCN(CC)CC(=O)NC1c2ccccc2Oc2c(C)cccc21 (configuration not stated)
> 100 µM: TGI (COLO 205 colon) | TGI (HL-60(TB) leukemia) | TGI (SF-539 CNS) | TGI (OVCAR-5 ovarian) | TGI (HCT-116 colon) | TGI (SK-MEL-28 melanoma) | TGI (SR leukemia)

COc1cc(-c2ccc(NC(=O)SCCC(=O)O)cc2OC)ccc1NC(=O)SCCC(=O)O
> 100 µM: TGI (COLO 205 colon) | TGI (HL-60(TB) leukemia) | TGI (SF-539 CNS) | TGI (OVCAR-5 ovarian) | TGI (HCT-116 colon) | TGI (U251 CNS) | TGI (SK-MEL-28 melanoma) | TGI (SR leukemia)

CC(=O)OC(C)(C)/C=C/C(=O)[C@](C)(O)[C@H]1[C@H](O)C[C@@]2(C)[C@@H]3CC=C4[C@@H](C=C(O)C(=O)C4(C)C)[C@]3(C)C(=O)C[C@]12C
1.39 µM [middle of 4 runs]: TGI (HCT-116 colon)
0.0846 µM: TGI (BT-549 breast)
6.67 µM and 4.02 µM and 1.09 µM: TGI (OVCAR-5 ovarian)

COC1[C@H](NC(=O)OC(C)(C)C)C(=O)N1Cc1ccccc1 (some centres not stated)
> 100 µM: TGI (COLO 205 colon) | TGI (HL-60(TB) leukemia) | TGI (SF-539 CNS) | TGI (OVCAR-5 ovarian) | TGI (HCT-116 colon) | TGI (U251 CNS) | TGI (SK-MEL-28 melanoma) | TGI (HOP-92 NSCLC)

CCOC(=O)C(NO)C(Sc1ccccc1)c1ccc(OC)cc1 (configuration not stated)
> 100 µM: TGI (COLO 205 colon) | TGI (SF-539 CNS) | TGI (OVCAR-5 ovarian) | TGI (HCT-116 colon) | TGI (U251 CNS) | TGI (SK-MEL-28 melanoma) | TGI (HOP-92 NSCLC) | TGI (SR leukemia)

C/C(=N\n1c(O)c(C#N)cc(C#N)c1=O)c1ccncc1
> 100 µM: TGI (COLO 205 colon) | TGI (OVCAR-5 ovarian) | TGI (HCT-116 colon) | TGI (U251 CNS) | TGI (SK-MEL-28 melanoma) | TGI (HOP-92 NSCLC) | TGI (SR leukemia)
inactive: GI50 (COLO 205 colon) > 100 µM | GI50 (OVCAR-5 ovarian) > 100 µM | GI50 (HCT-116 colon) > 100 µM | GI50 (U251 CNS) > 100 µM | GI50 (SK-MEL-28 melanoma) > 100 µM | GI50 (HOP-92 NSCLC) > 100 µM | GI50 (SR leukemia) > 100 µM

CC1CCC(=O)C(C(O)CC2CC(=O)N(c3ccccc3)C(=O)C2)C1 (configuration not stated)
> 100 µM: TGI (COLO 205 colon) | TGI (HL-60(TB) leukemia) | TGI (SF-539 CNS) | TGI (OVCAR-5 ovarian) | TGI (HCT-116 colon) | TGI (U251 CNS) | TGI (SK-MEL-28 melanoma) | TGI (HOP-92 NSCLC) | TGI (SR leukemia)

CN(C)C=NC1CCC(C(C)(C)C)CC1 (configuration not stated)
31.8 µM: TGI (SF-539 CNS)
31.2 µM: TGI (U251 CNS)
34 µM: TGI (BT-549 breast)
31.9 µM: TGI (HCT-116 colon)
29.4 µM: TGI (SK-MEL-28 melanoma)
37.2 µM: TGI (OVCAR-5 ovarian)
33.2 µM: TGI (COLO 205 colon) | TGI (HL-60(TB) leukemia)
34.6 µM: TGI (HOP-92 NSCLC)

CCCCCCCCCCCCCCCCc1c(C(=O)OC)nc(NN)[nH]c1=O
> 50 µM: TGI (COLO 205 colon) | TGI (HL-60(TB) leukemia) | TGI (SF-539 CNS) | TGI (OVCAR-5 ovarian) | TGI (HCT-116 colon) | TGI (U251 CNS) | TGI (SK-MEL-28 melanoma) | TGI (HOP-92 NSCLC)

CCOC(=O)c1c(NC(=O)c2ccccc2)sc2c3c(ccc12)OCN(C)C3
2.68 µM: TGI (HOP-92 NSCLC)
3.15 µM: TGI (SK-MEL-28 melanoma)
3.4 µM: TGI (U251 CNS)
3.27 µM: TGI (HCT-116 colon)
inactive: GI50 (COLO 205 colon) 1.77 µM | GI50 (HL-60(TB) leukemia) 1.81 µM | GI50 (SF-539 CNS) 1.63 µM | GI50 (OVCAR-5 ovarian) 1.71 µM | GI50 (HCT-116 colon) 1.77 µM | GI50 (U251 CNS) 1.68 µM | GI50 (SK-MEL-28 melanoma) 1.71 µM | GI50 (BT-549 breast) 5.76 µM | GI50 (HOP-92 NSCLC) 1.2 µM
3.7 µM: TGI (COLO 205 colon)
19.5 µM: TGI (BT-549 breast)
3.88 µM: TGI (HL-60(TB) leukemia)
3.05 µM: TGI (SF-539 CNS)
3.16 µM: TGI (OVCAR-5 ovarian)

Clc1ccc(CCc2ccncn2)c(Cl)c1
> 100 µM: TGI (COLO 205 colon) | TGI (HL-60(TB) leukemia) | TGI (SF-539 CNS) | TGI (OVCAR-5 ovarian) | TGI (HCT-116 colon) | TGI (U251 CNS) | TGI (SK-MEL-28 melanoma) | TGI (HOP-92 NSCLC)

CCCCCCCCCCSC(=O)NC
> 100 µM: TGI (COLO 205 colon) | TGI (SF-539 CNS) | TGI (OVCAR-5 ovarian)
39.9 µM: TGI (HL-60(TB) leukemia)
57.8 µM: TGI (HOP-92 NSCLC)
68.4 µM: TGI (U251 CNS) | TGI (SK-MEL-28 melanoma)
